Assay results taken from patent US20090054507A1, “CONTROL OF MALIGNANT CELLS BY KINASE INHIBITION” (CLEVELAND STATE UNIVERSITY, priority 2006, published 2009).
“Also recorded” adds a separate entry of the source.

Key:
MEG-01 cells [1] = assay: Flow cytometric DNA content assay using PI/RNAse A; assay type: cell-based, human; conditions: 10 μM DMAT for 4 days
Protocol: Flow cytometric DNA content assessment assay using PI/RNAse A. Cells were serum starved in order to synchronize them in the GO phase. Treatment with DMAT 10 μM for a period of 4 days was performed and then cells were collected for further processing. Cells were fixed in 80% cold Ethanol/PBS added drop-wise. Before PI staining cells were washed with sterile, RNAse, DNAse free, PBS buffer. Fixed cells were incubated with 50 μg/ml PI and 100 μg/ml RNAse A-I in hypotonic citrate staining buffer for 30 minutes in dark, at room temperature.

MEG-01 cells [2] = assay: Viability (proliferation) assay, Trypan blue exclusion, MEG-01; assay type: cell-based, human
tumors of U-87 cells = assay: Murine xenograft of U-87 cells, tumor volume; assay type: in vivo, mice; conditions: DMAT at effective dosage levels (in DMSO) per animal per day, approximately 24 days
Protocol: FIG. 96 illustrates the effect of administration of DMAT as compared to a control, i.e. DMSO, for a period of approximately 24 days. FIG. 96 is a graph of a murine xenograft treated with DMAT, compared to a control. Mice with tumors of U-87 cells were treated with DMAT at effective dosage levels (in DMSO) per animal per day. The daily animal weight was averaged at 32.5 g at the start of treatment. Tumors were measured daily and tumor volumes were calculated based upon a prolate spheroid model. FIG. 96 illustrates the significant benefits of treatment with DMAT (squares) as compared to the control (diamonds).

MCF-7 cells [3] = assay: Proliferation assay in vitro, MCF-7; assay type: cell-based, human; conditions: five days
Excerpt: Viability (proliferation) assay, Trypan blue exclusion. Cells were counted using a Neubauer hemacytometer.

tumor tissue and organs = assay: Hematoxylin & eosin staining of tumor tissue and organs of treated xenograft mice (all cell lines); assay type: in vivo
Protocol: (§1) Hematoxylin & eosin staining of tumor tissue and organs. After euthanasia with CO2, mice were supposed to necropsy. Tumors were collected from under the skin from both flanks and were measured for the last time and then fixed in formalin fixative. Spleen, liver, kidney, brain, lungs and legs were collected and fixed. Spleens were also measured (as length, […]). Fresh tissue was immersed immediately into liquid nitrogen and kept frozen at −80° C. Fixed tissue was embedded in paraffin and next processed for H&E (the basic dye hematoxylin, and the alcohol-based synthetic material, eosin) by the Cleveland Clinic Histology Core facility. Sections (4-μm thick) were stained with hematoxylin and eosin and evaluated for pathologic changes in a blinded fashion. H&E staining gives morphological information (vascularization, normal proliferating tissue, necrosis and apoptosis of the tissue).

MEG-01 cells [4] = assay: Thrombocytopoiesis / proplatelet formation by microscopy; assay type: cell-based, human
Protocol: Light microscopy (phase contrast) and DAPI fluorescence microscopy. High quality pictures and live imaging were obtained at Cleveland Clinic Imaging Core (Cleveland, Ohio). DAPI staining of cultured MEG-01 cells was performed with fresh cells. For live imaging (observing a single cell for a 24 hour period of time) of the thrombocytopoiesis process, MEG-01 suspension cells were made adherent by using Fibronectin (FN) coated culture dishes. FN was used, at 5 μg/cm^2 and incubated at 37° C. for 1 h, as recommended by the supplier (BD Biosciences, Bedford, Mass., USA).
Scanning electron microscopy (SEM). Cell preparation and pictures were performed at the Microscopy Core Facility (Cleveland Clinic). Cells were grown for 4 days in the presence of 10 μM DMAT and then collected by differential centrifugation. Cells were fixed in glutaraldehyde and then further processed at the Core. The clot was prepared with platelets collected from MEG-01 cultures treated with 10 μM DMAT. Human thrombin 0.5 U/ml for 15 minutes was used to activate them.

WM-164 cells = assay: Annexin V apoptosis/necrosis assay, WM-164; assay type: cell-based, human
Protocol: (§2) Apoptosis Assays using Flow Cytometry with Annexin V-FITC and propidium iodide (PI). For induction of typical apoptosis, cells were grown in the presence of 1 μM staurosporine (Sigma-Aldrich) for 6 hours. The staurosporine treated cells were stained as follows: control 1 with PI, control 2 with Annexin V-FITC and control 3 both PI and Annexin V-FITC in order to have the brightest controls for compensation and proper collection of the flow cytometry data. Cell necrosis was induced by heat shock (65° C. for 30 minutes). The stained control, both PI and Annexin V-FITC labeled, was then used as the reference in establishing the level of apoptosis induced by the treatments. Data was collected on logarithmic modes, two-colors. Annexin V-FITC corresponds to FL1 H channel, and PI to FL3H or FL2H channels.
(§3) Annexin V-FITC and PI apoptosis assay staining protocol. Apoptosis Annexin V-FITC and PI kit from BD Biosciences, CA, USA, was used. 10^5-10^6 cells were stained with 50 μg/ml PI and with 0.5 μg/ml FITC-labeled Annexin V using the staining protocol provided by the supplier. Samples were then analyzed immediately by flow cytometry.

MCF-7 cells [5] = assay: Annexin V apoptosis/necrosis assay, MCF-7; assay type: cell-based, human
Protocol: as §2, §3

MEG-01 xenografts = assay: Tail-bleeding assay in MEG-01 xenograft mice; assay type: in vivo; conditions: DMAT treated xenograft mice vs normal mice or control mice
Protocol: At the end of the trial, tail-bleeding times assay was performed and blood was collected for blood counts from live and anesthetized mice. After these experiments were completed mice were sacrificed and tumors and organs were collected. Samples were fixed in formalin for further processing.
Tail-bleeding assay. Tail-bleeding times are important to investigate whether the platelets could establish hemostasis in vivo. Platelet aggregation and clot retraction in response to physiologic agonists adenosine diphosphate (ADP), epinephrine, and thrombin will affect tail-bleeding times.
Normal tail-bleeding times are an average of 1.5-2 minutes in C57BL mouse strain.
Pre-warm tubes of saline (PBS) at 37° C. and maintained at this temperature during the measurements were used. Inhalation of isoflurane vapor or, alternatively, intraperitoneal injection of avertin was used to induce general anesthesia. Using a sharp new razor or scalpel blade, tails were cut exactly 0.5 cm of the distal tip of the tail of the adult mouse and immediately inserted into the pre-warmed tube of saline. A stopclock was started at this time. The tail was hold gently, near its base, to avoid a “tourniquet effect.” Venous blood flowing into the tube can be observed and can it can be detected when this bleeding stops. The stopclock provides an accurate bleeding time.

MEG-01 tumors = assay: Hematoxylin & eosin staining of MEG-01 tumors; assay type: in vivo, mice; design: dose or concentration left out as unconfirmed; conditions: DMAT treated vs control
Protocol: as §1

SW-480 cells = assay: Anchorage independence in soft agar, SW-480; assay type: cell-based, human; conditions: DMAT 10 μM, one week

SMILES: CN(C)c1nc2c(Br)c(Br)c(Br)c(Br)c2[nH]1 [DMAT, 2-dimethylamino-4,5,6,7-tetrabromo-1H-benzimidazole]
- DNA content (ploidy) (MEG-01 cells [1]): become polyploid (ploidy higher than 2N)
- proliferation of MEG-01 cells (Trypan Blue exclusion) (MEG-01 cells [2]; 25 μM DMAT, compared with 5 nM PMA): level of decrease was similar
- cell number / proliferation rate of MEG-01 cells (MEG-01 cells [2]; 50 μM DMAT, 4 days of treatment): maintained a steady number of cells
- tumor growth vs untreated control (tumors of U-87 cells): significantly less cancerous growth
- cell counts (MCF-7 cells [3]; 10 μM DMAT): cell counts between the control and the MCF-7 cells treated with 20 μM
- cell counts / proliferation (MCF-7 cells [3]; 20 μM DMAT): lowest cell counts; also recorded: proliferation arrest
- necrotic and apoptotic areas of tumors from treated mice vs untreated (DMSO) control tumors (tumor tissue and organs; all tumors, hematoxylin-eosin staining): high necrotic and apoptotic areas
- other organs of treated mice, hematoxylin-eosin staining (tumor tissue and organs; mouse, in vivo): appeared normal
- thrombocytopoiesis (MEG-01 cells [4]): induced thrombocytopoiesis
- proplatelet formation (MEG-01 cells [4]; 10 μM DMAT, as early as from the second day): form proplatelet extensions
- level of necrotic cells (WM-164 cells; 10 μM DMAT, 24 hours, control 4.8%): 2.0%
- level of apoptotic cells (WM-164 cells; 10 μM DMAT, 24 hours, control 16.9%): 36.8%
- level of apoptic cells (WM-164 cells; 20 μM DMAT): 26.8%
- level of necrotic cells (WM-164 cells; 20 μM DMAT): 4.1%
- level of apoptotic cells (MCF-7 cells [5]; 10 μM DMAT, 24 hours): 28.4%
- level of necrotic cells (MCF-7 cells [5]; 10 μM DMAT, 24 hours): 8.7%
- level of apoptotic cells (MCF-7 cells [5]; 20 μM DMAT): 49.0%
- level of necrotic cells (MCF-7 cells [5]; 20 μM DMAT): 7.8%
- tail bleeding times (MEG-01 xenografts): in certain instances, longer
- apoptotic-necrotic areas in tumors (hematoxylin and eosin) (MEG-01 tumors): significantly greater areas of apoptosis and necrosis
- colonies in soft agar (SW-480 cells): much smaller and fewer colonies
